Results reported in patent US20110190244A1, “METHOD OF TREATMENT OF EGFR INHIBITOR TOXICITY” (priority 2010, published 2011).
Like-named read-outs stand apart in the source and are kept apart here.

What was measured:
[1] = dogs, cited from earlier work
[2] = cited from earlier work
[3] = target: T1, STS (Homo sapiens, UniProt P08842); details: 40 mg dose; cited from earlier work
T1 construct: from tissue; host or cells: peripheral blood lymphocytes / mononuclear cells and breast tumour tissue of patients
T1 sequence (P08842 22-583): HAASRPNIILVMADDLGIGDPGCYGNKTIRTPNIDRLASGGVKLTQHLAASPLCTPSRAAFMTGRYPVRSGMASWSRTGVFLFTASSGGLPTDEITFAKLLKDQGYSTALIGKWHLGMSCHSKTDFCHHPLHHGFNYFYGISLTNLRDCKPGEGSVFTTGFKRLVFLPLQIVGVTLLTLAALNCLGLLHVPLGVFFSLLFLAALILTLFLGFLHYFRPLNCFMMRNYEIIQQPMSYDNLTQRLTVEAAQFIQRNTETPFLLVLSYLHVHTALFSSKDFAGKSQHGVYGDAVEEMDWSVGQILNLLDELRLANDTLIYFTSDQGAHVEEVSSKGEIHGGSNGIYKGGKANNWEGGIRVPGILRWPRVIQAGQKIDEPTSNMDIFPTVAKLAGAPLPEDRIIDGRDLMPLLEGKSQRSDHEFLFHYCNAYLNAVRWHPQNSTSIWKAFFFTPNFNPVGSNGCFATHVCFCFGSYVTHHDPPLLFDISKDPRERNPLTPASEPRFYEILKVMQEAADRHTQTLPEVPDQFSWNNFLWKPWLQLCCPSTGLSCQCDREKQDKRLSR

[4] = cited from earlier work; remark: listed apart in the source
[5] = dogs, 50, 250 and 1000 mg/kg/day; cited from earlier work
[6] = cited from earlier work; for no observed adverse effect level (NOAEL): rats, repeated oral dose
[7] = system: isolated Purkinje fibres; details: only at a high concentration of 50 μM; cited from earlier work
[8] = Repeated dose 1- and 6-month oral toxicity, rats; type: in vivo; details: versus 80 mg oral dose in patients
Text: However, there was a slightly lower exposure over time in rats compared to dogs. […] In vitro and in vivo metabolic studies have shown a large number of metabolites with qualitatively similar in vitro profiles in rats, dogs and man. […] Based on the pharmacokinetic parameters of BN83495, it is not expected to have any significant interaction with EGFR inhibitor/s which are metabolised predominantly by CYP3A4 (Roche products—Tarceva Product Information)
The no observed adverse effect level (NOAEL) was 200 mg/kg/day for males and 50 mg/kg/day for females.

[9] = Oral administration to radiotelemetry instrumented dogs for seven days; details: highest tested dose, versus 80 mg oral dose in patients
[10] = target: T1, STS; details: cited from earlier work
[11] = target: CYP2C19 (Homo sapiens, UniProt P33261); details: cited from earlier work
[12] = female patients, 80 mg oral dose; cited from earlier work
[13] = rats, single oral doses up to 1200 mg/kg; cited from earlier work
[14] = system: carcinogen-induced mammary tumours; details: ovariectomized rats; cited from earlier work
[15] = cited from earlier work; remark: listed apart in the source
[16] = rats, 2000 mg/kg oral; cited from earlier work
[17] = system: STS; details: cited from earlier work
[18] = cited from earlier work; remark: listed apart in the source
[19] = mice, 2000 mg/kg oral; cited from earlier work
[20] = target: T2, hERG current (Homo sapiens, UniProt Q12809); details: transfected HEK-293 cells, in vitro; read-out: hERG current inhibition IC50; cited from earlier work
T2 construct: expressed in transfected cells; host or cells: HEK-293

[21] = rats, 25, 50, 100 and 200 mg/kg/day

CYP2C19, sequence (P33261 whole entry): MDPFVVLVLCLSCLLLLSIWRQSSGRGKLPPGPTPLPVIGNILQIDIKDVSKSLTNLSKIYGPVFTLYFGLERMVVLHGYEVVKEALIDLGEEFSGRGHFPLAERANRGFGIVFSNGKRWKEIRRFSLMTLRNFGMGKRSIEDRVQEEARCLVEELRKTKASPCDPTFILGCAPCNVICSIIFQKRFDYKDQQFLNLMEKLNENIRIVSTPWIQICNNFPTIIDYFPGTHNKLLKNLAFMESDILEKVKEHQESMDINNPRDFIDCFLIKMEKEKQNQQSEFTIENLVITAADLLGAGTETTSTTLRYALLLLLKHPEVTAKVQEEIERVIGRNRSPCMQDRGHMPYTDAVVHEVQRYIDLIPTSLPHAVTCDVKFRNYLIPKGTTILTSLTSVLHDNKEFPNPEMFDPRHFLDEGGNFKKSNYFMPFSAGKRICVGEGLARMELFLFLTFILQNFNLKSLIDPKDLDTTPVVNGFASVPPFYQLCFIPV
T2 sequence (Q12809 whole entry): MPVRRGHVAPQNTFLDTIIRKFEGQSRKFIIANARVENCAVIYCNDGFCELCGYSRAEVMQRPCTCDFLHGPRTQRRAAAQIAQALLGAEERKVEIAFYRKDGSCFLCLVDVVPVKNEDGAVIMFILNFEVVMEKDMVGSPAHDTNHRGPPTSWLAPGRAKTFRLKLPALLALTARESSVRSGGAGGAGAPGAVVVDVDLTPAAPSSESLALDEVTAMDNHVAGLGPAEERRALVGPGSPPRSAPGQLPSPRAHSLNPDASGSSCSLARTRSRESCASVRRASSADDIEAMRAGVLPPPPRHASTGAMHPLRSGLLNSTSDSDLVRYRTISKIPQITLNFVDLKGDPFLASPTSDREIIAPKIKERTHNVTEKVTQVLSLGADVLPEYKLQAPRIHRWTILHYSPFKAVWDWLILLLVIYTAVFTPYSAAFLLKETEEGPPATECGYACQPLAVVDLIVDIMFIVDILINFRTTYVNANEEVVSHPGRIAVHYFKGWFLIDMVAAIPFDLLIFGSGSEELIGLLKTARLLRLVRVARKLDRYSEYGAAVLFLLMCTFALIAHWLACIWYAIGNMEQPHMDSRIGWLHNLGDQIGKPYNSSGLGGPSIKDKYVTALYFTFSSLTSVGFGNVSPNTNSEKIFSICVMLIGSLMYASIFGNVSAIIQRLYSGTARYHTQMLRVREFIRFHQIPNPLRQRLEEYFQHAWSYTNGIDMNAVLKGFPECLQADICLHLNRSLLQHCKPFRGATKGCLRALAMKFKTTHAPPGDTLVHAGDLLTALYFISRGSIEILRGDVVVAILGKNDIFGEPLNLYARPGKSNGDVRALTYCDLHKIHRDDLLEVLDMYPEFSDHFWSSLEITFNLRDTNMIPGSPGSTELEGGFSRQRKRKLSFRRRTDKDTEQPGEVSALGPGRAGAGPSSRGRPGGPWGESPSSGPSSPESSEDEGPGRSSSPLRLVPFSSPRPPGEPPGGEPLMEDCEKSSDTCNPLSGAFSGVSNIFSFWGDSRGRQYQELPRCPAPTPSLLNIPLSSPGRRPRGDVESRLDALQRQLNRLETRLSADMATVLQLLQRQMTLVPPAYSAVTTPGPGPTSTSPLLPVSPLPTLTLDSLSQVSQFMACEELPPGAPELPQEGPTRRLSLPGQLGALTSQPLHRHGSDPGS

NS(=O)(=O)Oc1ccc2c3c(c(=O)oc2c1)CCCCC3 [BN83495, Sulphamic acid, 6,7,8,9,10,11-hexahydro-6-oxobenzo[b]cyclohepta[d]pyran-3-yl ester]
haemodynamic effects ([1]; at both doses (150 and 400 mg/kg/day)): transient hypotension and reflex tachycardia | ECG changes ([1]; oral 150 and 400 mg/kg/day for seven consecutive days): did not induce any clinically relevant ECG changes | tolerability ([2]; doses 1 mg up to 80 mg): well tolerated up to a dose of 40 mg | drug-related adverse events, Grade 3 ([2]; observed in 2 patients): 4 | effect on ECG parameters ([2]; preliminary review of ECG data): does not have an effect on ECG parameters | patients with stable disease for more than 6 months ([2]; three higher dose groups): Four | dose limiting toxicity ([2]; up to a dose of 40 mg): no dose limiting toxicity was observed | inhibition of STS in peripheral blood mononuclear cells [3]: 95% | absorption ([4]; non-clinical studies): rapid absorption | elimination of radioactivity ([4]; preclinical models, by biotransformation): mainly via urine | distribution ([4]; rats, primarily in blood and related organs, intestine, liver and kidneys): widely distributed | erythrocyte uptake ([4]; uptake and retention related to carbonic anhydrase II enzyme): sequestered in erythrocytes | adrenal findings [5]: adrenal cortical cell hypertrophy was seen in all treated animal groups | kidney findings [5]: flattened tubular epithelium in one high dose animal/sex | liver findings [5]: hepatocellular vacuolation in both sexes at 50 mg/kg/day and in females at 250 and 1000 mg/kg/day | plasma exposure versus dose ([6]; 6-month repeat dose rat toxicology studies, Day 1): proportional to dose | bone findings (femur, tibia and sternum) [6, 21]: partially reversible osteoid deposition at all treated dose-levels | liver findings [6, 21]: reversible hepatocellular vacuolation in all treated groups | no observed adverse effect level (NOAEL) ([6]; females): 50 mg/kg/day | no observed adverse effect level (NOAEL) ([6]; males): 200 mg/kg/day | action potential duration (APD) [7]: increased action potential duration | exposure (AUC) in rats relative to mean AUC in female patients ([8]; female rats): 14 fold | exposure (AUC) in rats relative to mean AUC in female patients ([8]; male rats): 31 fold | mean maximum plasma exposure relative to mean steady state plasma AUC in female patients [9]: 62 fold | mean maximum plasma exposure relative to mean steady state plasma Cmax in female patients [9]: 103 fold | patients with more than 90% STS inhibition in tumour tissue ([10]; 5 mg dose): 3 out of 4 | patients with more than 90% STS inhibition in tumour tissue ([10]; 20 mg dose, patients in whom it was measured): all 3 | inhibition of STS activity in peripheral blood lymphocytes ([10]; 24 hours after dosing on Day 5, both dose groups (5 mg, 20 mg daily)): more than 90% | potential clinically significant induction/inhibition of a CYP450 isoenzyme [11]: inhibition of CYP2C19 | mean steady state plasma AUC [12]: 1293 ng·h/mL | mean steady state plasma Cmax [12]: 159 ng/mL | effect on behaviour or respiration [13]: no effect on behaviour or respiration | growth of mammary tumours stimulated by estrone sulphate (E1S) [14]: blocked the ability of estrone sulphate (E1S) to stimulate the growth | best response: stable disease ([15]; 14 patients, 5 mg or 20 mg): 4 patients | serum concentrations of oestradiol, androstenediol and testosterone ([15]; Day 5 assessment): significant decreases | tolerability ([15]; both tested doses (5 mg, 20 mg)): well tolerated | dose proportionality of Cmax, AUC and mean plasma clearance ([15]; patients, 5 mg and 20 mg): non dose proportional pharmacokinetics | serum DHEA concentration ([15]; patients, 5 mg or 20 mg): significant decreases | adverse effects in single dose oral toxicity study [16]: did not show any adverse effects | STS inhibition in rodents ([17]; in vivo): potent STS inhibitor | protein binding [18]: highly protein bound | adverse effects in single dose oral toxicity study [19]: did not show any adverse effects | IC50 [20]: 13 µM

CCCN1C(=O)CC2C3CCc4cc(OS(N)(=O)=O)ccc4C3CC[C@]2(C)C1=O (some centres unmarked) [STX213]
STS inhibition in rodents ([17]; rodents): effectively inhibit STS activity
